{"source": "patent EP0332946B1", "about": "“The dipeptide L-pyroglutamyl-L-cysteine, having a high anti-cataractogenic activity, and pharmaceutical compositions containing the same” (S.I.F.I. Società Industria Farmaceutica Italiana S.p.A., priority 1988, dated 1993)", "key": {"Male albino Wistar rats": {"tested_on": "Male albino Wistar rats", "assay": "Cataract from tryptophan deficiency (in vivo experimental cataract model, slit lamp evaluation)", "conditions": "rats on tryptophan-deficient diet, 30 days", "procedure": "Said rats have been fed a synthetic diet devoid of tryptophan for a 30 days period and divided in three groups: the first animal group has been administered PGC subcutaneously at a dosage of 1 mg/kg in buffer solution, the second group has been administered a 10 mg/kg doses, whilst the animals of the third group have been injected only buffer solution.\nThe conditions of the various eye sections : conjunctiva, cornea, interior chamber, lens and vitreous humor have been evaluated at the slit lamp.\nEspecially the localisation and the degree of lens opaqueness have been scrutinized and documented by means of photographs.\nIt was possible to observe opaqueness predominantly at the level at the posterior capsule and there was also evidence of an initial sclerosis of the nucleus. No further alterations either at the level of the anterior segment or of the posterior segment have been observed."}, "[1]": {"tested_on": "Female albino Sprague-Dowely rats", "assay": "Cataract due to hypergalactosemic diet (in vivo experimental cataract model, slit lamp evaluation)", "conditions": "rats on 50% galactose diet, 20 days; PGC 10% in buffer, one drop twice a day into the conjunctive sac", "excerpt": "Female albino Sprague-Dowely rats having an average weight of 70 g have been used. Said rats have been fed a diet consisting of 50% galactose and the remaining 50% standard rat food during a 20 days period. The animals have been divided in two groups: the first animal group has been administered PGC (10% in buffer) by instilling one drop twice a day into the conjuctive sac, both sides; the second group, consisting of control animals, has been administered buffer only.\nThe conditions of the various eye sections : conjunctiva, cornea, interior chamber, lens and vitreous humor have been evaluated at the slit lamp. The examination has been carried out before the beginning of the treatment and then on the 5th, 10th, 15th and 20th day."}, "rat lenses": {"tested_on": "rat lenses", "assay": "Experimental model of in vitro cataract (isolated lenses incubated in high-glucose culture broth)", "assay_type": "cell-based, rats", "conditions": "lenses treated with PGC 1M; 55.5 mM glucose", "procedure": "Male albino Wistar rats having an average weight of 180 g have been used. After decapitation, both eye bulbs have been enucleated and the lenses have been removed from the back. The isolated lenses have been incubated at 37°C during 5 days in culture broth 199 containing 15% of foetal bovine serum (Laboratorio Gebco) and a 55.5 mM concentration of glucose. PGC has been added at a 1M concentration into the culture broth of only some lenses. The observations have been carried out at the 3rd and 5th day with the use of a stereo microscope and a Nikon camera with annular flash.\nIt can be observed that in the control lenses the opaqueness development begins after only 72 hours of incubation and is complete after 120 hours. In the lenses treated with PGC low levels of opaqueness can not be observed before 120 hours of treatment."}, "male New-Zealand rabbits [2]": {"tested_on": "male New-Zealand rabbits", "assay": "Toxicity (systemic tolerability) after intraperitoneal injection", "assay_type": "in vivo", "procedure": "The systemic tolerability of PGC has been studied also after acute administration by means of intraperitoneal injection.\n10 rabbits have received the substance (400 mg/kg) injected intraperitoneally.\n24 hours after the administration of the product, the following examination have been carried out on urine and blood: • blood cell (red and white) count • determination of glycemia and acotemia; • evaluation of SGOT and SGPT transaminases"}, "male New-Zealand rabbits [3]": {"tested_on": "male New-Zealand rabbits", "conditions": "rabbit, in vivo"}}, "note": "Read-outs that look alike come from different tables or passages of the source. Non-standard residues stand in square brackets, D forms with d. Residues, ends and D or L forms follow the SMILES beside them. pGlu = O=C1CC[C@@H](C(=O)O)N1"}
{"smiles": "O=C1CC[C@@H](C(=O)N[C@@H](CS)C(=O)O)N1", "note": "[PGC, L-pyroglutamyl-L-cysteine] ([pGlu]-Cys-OH)", "values": [{"measurement": "lens opaqueness", "setting": "Male albino Wistar rats; PGC 1 mg/kg subcutaneously", "result": "perfectly transparent"}, {"measurement": "lens opaqueness", "setting": "Male albino Wistar rats; PGC 10 mg/kg subcutaneously", "result": "perfectly transparent"}, {"measurement": "effect on the formation of lens opaqueness", "setting": "[1]", "result": "protective effect"}, {"measurement": "percent of opaque lenses as a whole in the treated animals relative to the controls", "setting": "[1]", "result": 60, "unit": "%"}, {"measurement": "time before low levels of opaqueness can be observed", "setting": "rat lenses", "result": "≥ 120", "unit": "h"}, {"measurement": "changes of the hematological or hematochemical constants or of the urine composition", "setting": "male New-Zealand rabbits [2]; PGC 400 mg/kg intraperitoneally, 24 hours after administration, urine and blood examination", "result": "not shown any changes"}, {"measurement": "growth modification relative to control animals", "setting": "male New-Zealand rabbits [2]; PGC intraperitoneally", "result": "No growth modification"}, {"measurement": "BODY WEIGHT INCREASE (KG) ON DAY 0", "setting": "male New-Zealand rabbits [2]; PGC intraperitoneally (400 mg/kg), day 0 (baseline), average ± SD, n=10", "result": "1.45 ± 0.05", "unit": "kg"}, {"measurement": "BODY WEIGHT INCREASE (KG) ON DAY 20", "setting": "male New-Zealand rabbits [2]; PGC intraperitoneally (400 mg/kg), day 20, average ± SD, n=10", "result": "2.25 ± 0.08", "unit": "kg"}, {"measurement": "BODY WEIGHT INCREASE (KG) ON DAY 0", "setting": "male New-Zealand rabbits [3]", "result": "1.60 ± 0.08", "unit": "kg"}, {"measurement": "BODY WEIGHT INCREASE (KG) ON DAY 20", "setting": "male New-Zealand rabbits [3]", "result": "2.34 ± 0.12", "unit": "kg"}, {"measurement": "changes of the hematological or hematochemical constants or of the urine composition", "setting": "male New-Zealand rabbits [3]", "result": "not shown any changes"}, {"measurement": "growth modification relative to control animals", "setting": "male New-Zealand rabbits [3]", "result": "No growth modification"}]}
